Assay results from the NIST ThermoML archive (doi:10.1016/j.fluid.2014.10.044).
± gives the expanded uncertainty stated by the source.

Test: xn = mol fraction of the nth substance listed
Conditions: 298.15 K, 101 kPa, Liquid; for viscosity: Concentric cylinders viscometry; for mass density: Vibrating tube method

SMILES: O=C(O)CO [2-hydroxyethanoic acid] + C[N+](C)(C)CCO.[Cl-]
- viscosity (x2 = 0.25): 311.21 ± 19 mPa·s
- viscosity (x2 = 0.5): 803.76 ± 74 mPa·s
- mass density (x2 = 0.25): 1266.5 ± 0.9 kg/m3
- mass density (x2 = 0.5): 1197.6 ± 1 kg/m3
